The source of these data is patent US20200392150A1, “Diaryl-B-Lactam Compound and Preparation Method and Pharmaceutical Use Thereof” (Fudan University, priority 2016, published 2020).

Broadly, the melting point is the temperature, or range, at which the solid turns liquid. Usually IC50 stands for the concentration that gives 50% inhibition.

The subject of one series is A2780. The experiment in a line: In vitro cell growth inhibition assay (MTT). To be noted: A2780 human ovarian cancer cell line, 48 h, MTT; read-out: IC50 A2780. In kind it is cell-based, human. The procedure, abridged:
(§1)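 SKOV3, A2780 or HeLa cells were seeded at 5000 per well, allowed to adhere overnight, then treated 48 h with compounds; 0.2% DMSO served as control. IC50 values came from growth inhibition rates.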

The test system of the next series is SKOV3. The experiment in a line: In vitro cell growth inhibition assay (MTT). Particulars: SK-OV-3; SKOV-3 human ovarian cancer cell line, 48 h, MTT; read-out: IC50 SKOV3. In kind it is cell-based, human. The procedure, abridged: as §1
Another series has as its system Hela. Kind of series: In vitro cell growth inhibition assay (MTT). Type of series: cell-based, human. To be noted: Hela human cervical cancer cell line, 48 h, MTT; read-out: IC50 Hela. Summed up:
as §1

In the next series the test system is MDA-MB-231. The experiment in a line: In vitro cell growth inhibition assay (MTT). To be noted: MDA-MB-231 human breast cancer cell line, 48 h, MTT; read-out: IC50 MDA-MB-231. In kind it is cell-based, human. The procedure, abridged: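 Following overnight adherence of 5000 cells per well, compounds or 0.2% DMSO were applied for 48 h. Medium was then swapped for 0.5 mg/mL MTT medium (4 h, 37° C), crystals dissolved in DMSO, and plates read at 540 nm.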

A value given as a limit tells only on which side of the number the result lay.

Turning to `C=C1C(=O)N(c2cc(OC)c(OC)c(OC)c2)[C@H]1c1ccc(OC)c(OC(=O)N2CCOCC2)c1` [Compound 25, (S)-2-methoxy-5-(3-methylene-4-oxo-1-(3,4,5-trimethoxyphenyl)azetidin-2-yl)phenyl morpholine-4-carboxylate], the melting point fell in the range of 82 to 83 °C. In addition, the IC50 in the series on A2780 was above 10000 nM. In the series on SKOV3, the IC50 was above 10000 nM. In the series on Hela, the IC50 was above 10000 nM. For the same compound, in the series with MDA-MB-231, the IC50 is above 10000 nM.
Consider `C=C1C(=O)N(c2cc(OC)c(OC)c(OC)c2)[C@H]1c1ccc(OC)c(OS(N)(=O)=O)c1` [Compound 26, (S)-2-methoxy-5-(3-methylene-4-oxo-1-(3,4,5-trimethoxyphenyl)azetidin-2-yl)phenyl sulfamate], for which the melting point fell in the range of 199 to 200 °C. Moreover, the IC50 in the series on A2780 came to 133 nM. The IC50 in the series with SKOV3 turned out to be 177 nM. Further, in the series on Hela, the IC50 came to 224 nM. Further, in the series on MDA-MB-231, the IC50 amounted to 240 nM.
In turn, `C=C1C(=O)N(c2cc(OC)c(OC)c(OC)c2)[C@H]1c1ccc(OC)c(OS(=O)(=O)CCN2C(=O)c3ccccc3C2=O)c1` [Compound 28, (S)-2-methoxy-5-(3-methylene-4-oxo-1-(3,4,5-trimethoxyphenyl)azetidin-2-yl)phenyl 2-(1,3-dioxoisoindolin-2-yl)ethanesulfonate] came in with a melting point of 69 to 70 °C. The IC50 with A2780 came out at 16800 nM. Further, the IC50 in the series with SKOV3 stood at 13300 nM. For the same compound, in the series on Hela, the IC50 is above 20000 nM. Also, the IC50 with MDA-MB-231 was above 20000 nM.
`C=C1C(=O)N(c2cc(OC)c(OC)c(OC)c2)[C@H]1c1ccc(OC)c(OS(=O)(=O)N2CCOCC2)c1` [Compound 29, (S)-2-methoxy-5-(3-methylene-4-oxo-1-(3,4,5-trimethoxyphenyl)azetidin-2-yl)phenyl morpholine-4-sulfonate] had a melting point of 134 to 135 °C. Besides, the IC50 in the series with A2780 is 12900 nM. Also, the IC50 in the series on SKOV3 came out at 15600 nM. In addition, the IC50 with Hela worked out at 19300 nM. The IC50 in the series on MDA-MB-231 was above 20000 nM.
For `C=C1C(=O)N(c2cc(OC)c(OC)c(OC)c2)[C@H]1c1ccc(OC)c(OS(=O)(=O)CCCC)c1` [Compound 31, (S)-2-methoxy-5-(3-methylene-4-oxo-1-(3,4,5-trimethoxyphenyl)azetidin-2-yl)phenyl butane-1-sulfonate], the melting point was in the range of 99 to 100 °C. Further, in the series with A2780, the IC50 was found to be 5320 nM. In the series on SKOV3, the half-maximal inhibitory concentration (IC50) is 10200 nM. Further, the IC50 in the series with Hela is 14000 nM. Also, the IC50 with MDA-MB-231 was 7290 nM.
`C=C1C(=O)N(c2cc(OC)c(OC)c(OC)c2)[C@H]1c1ccc(OC)c(OC(=O)CNC(=O)OC(C)(C)C)c1` [Compound 34, (S)-2-methoxy-5-(3-methylene-4-oxo-1-(3,4,5-trimethoxyphenyl)azetidin-2-yl)phenyl 2-((tert-butoxycarbonyl)amino)acetate] showed a melting point of 88 to 89 °C. The IC50 in the series on A2780 amounted to 240 nM. The IC50 in the series with SKOV3 was 264 nM. In addition, the IC50 in the series with Hela came out at 62 nM. Besides, the IC50 with MDA-MB-231 is 335 nM.
With `C=C1C(=O)N(c2cc(OC)c(OC)c(OC)c2)[C@H]1c1ccc(OC)c(Cl)c1` [Compound 39, (S)-4-(3-chloro-4-methoxyphenyl)-3-methylene-1-(3,4,5-trimethoxyphenyl)azetidin-2-one], the melting point fell in the range of 119 to 120 °C. In the series on A2780, the IC50 is 316 nM. The IC50 with SKOV3 turned out to be 341 nM. Besides, the IC50 with Hela amounted to 371 nM. Also, the IC50 in the series on MDA-MB-231 stood at 512 nM.
The compound `C=C1C(=O)N(c2cc(OC)c(OC)c(OC)c2)[C@H]1c1ccc(OC)c(C(=O)OC)c1` [Compound 40, (5)-methyl 2-methoxy-5-(3-methylene-4-oxo-1-(3,4,5-trimethoxyphenyl)azetidin-2-yl)benzoate] returned a melting point of 112 to 113 °C. Moreover, in the series with A2780, the IC50 is 281 nM. Further, the concentration for half-maximal inhibition (IC50) in the series with SKOV3 is 539 nM. Besides, the IC50 in the series with Hela is 942 nM. Also, in the series with MDA-MB-231, the IC50 was found to be 479 nM.
The compound `C=CC(=O)Nc1cc([C@H]2C(=C)C(=O)N2c2cc(OC)c(OC)c(OC)c2)ccc1OC` [Compound 42, (S)—N-(2-methoxy-5-(3-methylene-4-oxo-1-(3,4,5-trimethoxyphenyl)azetidin-2-yl)phenyl)acrylamide] displayed a melting point of 143 to 144 °C. Moreover, the IC50 in the series on A2780 is 65 nM. Moreover, the IC50 with SKOV3 is 63 nM. Further, the IC50 in the series with Hela was found to be 125 nM. The IC50 in the series with MDA-MB-231 was 34 nM.
Take `C=C1C(=O)N(c2cc(OC)c(OC)c(OC)c2)[C@H]1c1ccc(OC)c(NC(=O)c2ccc([N+](=O)[O-])cc2)c1` [Compound 43, (S)—N-(2-methoxy-5-(3-methylene-4-oxo-1-(3,4,5-trimethoxyphenyl)azetidin-2-yl)phenyl)-4-nitrobenzamide]: the melting point lay in the range of 234 to 235 °C. For the same compound, in the series on A2780, the IC50 is 931 nM. Also, the IC50 with SKOV3 stood at 1420 nM. Further, the half-inhibitory concentration (IC50) in the series with Hela came out at 1580 nM. The IC50 in the series with MDA-MB-231 is 2000 nM.
The compound `C=C1C(=O)N(c2cc(OC)c(OC)c(OC)c2)[C@H]1c1ccc(OC)c(NS(N)(=O)=O)c1` [Compound 44, (S)—N-(2-methoxy-5-(3-methylene-4-oxo-1-(3,4,5-trimethoxyphenyl)azetidin-2-yl)phenyl)sulfamoylamide] returned a melting point of 101 to 102 °C. Moreover, the IC50 in the series with A2780 came out at 354 nM. In the series on SKOV3, the 50% inhibitory concentration (IC50) was found to be 833 nM. For the same compound, the IC50 in the series on Hela came out at 456 nM. The IC50 in the series on MDA-MB-231 is 841 nM.
As for `C=C1C(=O)N(c2cc(OC)c(OC)c(OC)c2)[C@H]1c1ccc(OC)c(NC(=O)C2CC2)c1` [Compound 45, (S)—N-(2-methoxy-5-(3-methylene-4-oxo-1-(3,4,5-trimethoxyphenyl)azetidin-2-yl)phenyl)cyclopropanecarboxamide], the melting point lay in the range of 181 to 182 °C. Besides, the IC50 in the series with A2780 came out at 148 nM. Also, the IC50 with SKOV3 amounted to 224 nM. Further, in the series with Hela, the IC50 was 321 nM. Moreover, the half-inhibitory concentration (IC50) in the series on MDA-MB-231 is 197 nM.
`C=C1C(=O)N(c2cc(OC)c(OC)c(OC)c2)[C@H]1c1ccc(OC)c(OC(C)=O)c1` [Compound 46, (S)-2-methoxy-5-(3-methylene-4-oxo-1-(3,4,5-trimethoxyphenyl)azetidin-2-yl)phenyl acetate] showed a melting point of 122 to 123 °C. Moreover, in the series with A2780, the IC50 was 81 nM. Further, the IC50 in the series on SKOV3 is 104 nM. Besides, the 50% inhibitory concentration (IC50) in the series with Hela amounted to 116 nM. In addition, in the series on MDA-MB-231, the IC50 came out at 133 nM.
As for `C=C1C(=O)N(c2cc(OC)c(OC)c(OC)c2)[C@H]1c1ccc(OC)c(OCc2ccccc2)c1` [Compound 47, (S)-4-(3-(benzyloxy)-4-methoxyphenyl)-3-methylene-1-(3,4,5-trimethoxyphenyl)azetidin-2-one], the melting point was in the range of 133 to 134 °C. For the same compound, the half-maximal inhibitory concentration (IC50) in the series with A2780 was above 20000 nM. For the same compound, the IC50 in the series on SKOV3 is above 20000 nM. In the series with Hela, the IC50 is above 20000 nM. The IC50 with MDA-MB-231 is above 20000 nM.
For the compound `C=C1C(=O)N(c2ccc(OC)c(OC)c2)[C@H]1c1ccc(OC)c(O)c1` [Compound 48, (S)-1-(3,4-dimethoxyphenyl)-4-(3-hydroxy-4-methoxyphenyl)-3-methyleneazetidin-2-one], the melting point lay within 74 to 75 °C. Further, the half-maximal inhibitory concentration (IC50) in the series with A2780 amounted to 4570 nM. Moreover, the IC50 in the series on SKOV3 is 14800 nM. The IC50 in the series on Hela was above 20000 nM. In addition, in the series with MDA-MB-231, the IC50 is 6100 nM.
`C=C1C(=O)N(c2cccc(OC)c2)[C@H]1c1ccc(OC)c(O)c1` [Compound 51, (S)-1-(3-methoxyphenyl)-4-(3-hydroxy-4-methoxyphenyl)-3-methyleneazetidin-2-one] registered a melting point of 104 to 105 °C. Moreover, the 50% inhibitory concentration (IC50) in the series on A2780 was 677 nM. Further, in the series on SKOV3, the IC50 is 1390 nM. Besides, the IC50 in the series on Hela stood at 2170 nM. In the series on MDA-MB-231, the concentration for half-maximal inhibition (IC50) came to 1370 nM.
`C=C1C(=O)N(c2ccc(OC)cc2)[C@H]1c1ccc(OC)c(O)c1` [Compound 52, (S)-1-(4-methoxyphenyl)-4-(3-hydroxy-4-methoxyphenyl)-3-methyleneazetidin-2-one] returned a melting point of 180 to 181 °C. The 50% inhibitory concentration (IC50) in the series on A2780 is above 20000 nM. Further, in the series on SKOV3, the IC50 was above 20000 nM. The IC50 in the series with Hela was above 20000 nM. Also, in the series on MDA-MB-231, the IC50 is above 20000 nM.
In turn, `COc1ccc([C@H]2/C(=C/C[Si](C)(C)C)C(=O)N2c2cc(OC)c(OC)c(OC)c2)cc1O` [Compound 53, (S,Z)-4-(3-hydroxy-4-methoxyphenyl)-1-(3,4,5-trimethoxyphenyl)-3-(2-(trimethylsilyl)ethylidene)azetidin-2-one] displayed a melting point of 67 to 69 °C. Moreover, in the series with A2780, the IC50 is above 10000 nM. Also, the IC50 in the series with SKOV3 is above 10000 nM. Also, the IC50 with Hela is above 10000 nM. Besides, the IC50 with MDA-MB-231 was above 10000 nM.
